Here are results for eleven compounds from patent publication US11299501B2 (BRISTOL-MYERS SQUIBB COMPANY, priority 2017, dated 2022).

The structures appear in SMILES notation.

Common to all, as to assay type: cell-based
One assay has as its target T1, human TLR7 (Homo sapiens, UniProt Q9NYK1).
T1 construct: host or cells: HEK-Blue cells
T1 sequence (Q9NYK1 27-1049): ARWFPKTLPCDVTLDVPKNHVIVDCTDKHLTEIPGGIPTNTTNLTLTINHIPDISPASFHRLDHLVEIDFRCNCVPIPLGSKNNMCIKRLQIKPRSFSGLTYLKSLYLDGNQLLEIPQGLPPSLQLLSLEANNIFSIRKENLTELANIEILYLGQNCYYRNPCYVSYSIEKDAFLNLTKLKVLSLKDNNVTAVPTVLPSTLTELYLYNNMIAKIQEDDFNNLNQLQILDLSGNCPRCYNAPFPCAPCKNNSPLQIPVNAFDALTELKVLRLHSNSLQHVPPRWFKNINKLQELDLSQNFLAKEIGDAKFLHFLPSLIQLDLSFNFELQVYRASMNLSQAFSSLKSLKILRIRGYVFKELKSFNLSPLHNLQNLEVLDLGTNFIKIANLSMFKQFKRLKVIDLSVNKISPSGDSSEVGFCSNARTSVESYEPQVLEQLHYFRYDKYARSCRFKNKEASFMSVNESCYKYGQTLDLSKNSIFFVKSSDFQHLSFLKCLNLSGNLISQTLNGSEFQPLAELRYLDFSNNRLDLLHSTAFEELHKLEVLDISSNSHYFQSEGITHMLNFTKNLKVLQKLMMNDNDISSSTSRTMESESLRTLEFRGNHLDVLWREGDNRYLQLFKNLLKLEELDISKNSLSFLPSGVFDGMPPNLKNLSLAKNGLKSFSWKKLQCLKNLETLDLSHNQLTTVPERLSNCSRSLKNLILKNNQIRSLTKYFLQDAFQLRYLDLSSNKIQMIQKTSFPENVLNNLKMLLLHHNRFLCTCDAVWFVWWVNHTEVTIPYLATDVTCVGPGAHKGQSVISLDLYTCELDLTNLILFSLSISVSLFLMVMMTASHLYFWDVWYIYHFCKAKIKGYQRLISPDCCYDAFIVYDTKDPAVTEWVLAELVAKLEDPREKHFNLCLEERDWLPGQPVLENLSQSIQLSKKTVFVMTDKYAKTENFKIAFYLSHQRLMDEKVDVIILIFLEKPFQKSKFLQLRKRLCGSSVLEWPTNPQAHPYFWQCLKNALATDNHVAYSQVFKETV
As to the kind of experiment: TLR7 inhibition reporter assay (HEK-Blue SEAP). The conditions noted are these: cells overexpressing human TLR7, SEAP reporter, stimulated with gardiquimod 7.5 μM, 22 hour incubation. As for the experimental part:
(§1) TLR7/8/9 Inhibition Reporter Assays
(§2) […] (Invivogen) overexpressing human TLR7, TLR8 or TLR9 receptors were used for screening inhibitors of these receptors using an inducible SEAP (secreted embryonic alkaline phosphatase) reporter gene under the control of the IFN-β minimal promoter fused to five NF-κB and AP-1-binding sites. Briefly, cells are seeded into Greiner 384 well plates (15000 cells per well for TLR7, 20,000 for TLR8 and 25,000 for TLR9) and then treated with test compounds in DMSO to yield a final dose response concentration range of 0.05 nM-50 μM. After a 30 minute compound pre-treatment at room temperature, the cells are then stimulated with a TLR7 ligand (gardiquimod at a final concentration of 7.5 μM). TLR8 ligand (R848 at a final concentration of 15.9 μM) or TLR9 ligand (ODN2006 at a final concentration of 5 nM) to activate NF-κB and AP-1 which induce the production of SEAP. After a 22 hour incubation at 37° C., 5% CO2, SEAP levels are determined with the addition of HEK-Blue™ Detection reagent (Invivogen), a cell culture medium that allows for detection of SEAP, according to manufacturer's specifications. The percent inhibition is determined as the % reduction in the HEK-Blue signal present in wells treated with agonist plus DMSO alone compared to wells treated with a known inhibitor.
On the technique in general: A reporter such as luciferase makes a cellular process visible.

The next assay deals with T2, human TLR8 (Homo sapiens, UniProt Q9NR97).
T2 construct: host or cells: HEK-Blue cells
T2 sequence (Q9NR97 27-1041): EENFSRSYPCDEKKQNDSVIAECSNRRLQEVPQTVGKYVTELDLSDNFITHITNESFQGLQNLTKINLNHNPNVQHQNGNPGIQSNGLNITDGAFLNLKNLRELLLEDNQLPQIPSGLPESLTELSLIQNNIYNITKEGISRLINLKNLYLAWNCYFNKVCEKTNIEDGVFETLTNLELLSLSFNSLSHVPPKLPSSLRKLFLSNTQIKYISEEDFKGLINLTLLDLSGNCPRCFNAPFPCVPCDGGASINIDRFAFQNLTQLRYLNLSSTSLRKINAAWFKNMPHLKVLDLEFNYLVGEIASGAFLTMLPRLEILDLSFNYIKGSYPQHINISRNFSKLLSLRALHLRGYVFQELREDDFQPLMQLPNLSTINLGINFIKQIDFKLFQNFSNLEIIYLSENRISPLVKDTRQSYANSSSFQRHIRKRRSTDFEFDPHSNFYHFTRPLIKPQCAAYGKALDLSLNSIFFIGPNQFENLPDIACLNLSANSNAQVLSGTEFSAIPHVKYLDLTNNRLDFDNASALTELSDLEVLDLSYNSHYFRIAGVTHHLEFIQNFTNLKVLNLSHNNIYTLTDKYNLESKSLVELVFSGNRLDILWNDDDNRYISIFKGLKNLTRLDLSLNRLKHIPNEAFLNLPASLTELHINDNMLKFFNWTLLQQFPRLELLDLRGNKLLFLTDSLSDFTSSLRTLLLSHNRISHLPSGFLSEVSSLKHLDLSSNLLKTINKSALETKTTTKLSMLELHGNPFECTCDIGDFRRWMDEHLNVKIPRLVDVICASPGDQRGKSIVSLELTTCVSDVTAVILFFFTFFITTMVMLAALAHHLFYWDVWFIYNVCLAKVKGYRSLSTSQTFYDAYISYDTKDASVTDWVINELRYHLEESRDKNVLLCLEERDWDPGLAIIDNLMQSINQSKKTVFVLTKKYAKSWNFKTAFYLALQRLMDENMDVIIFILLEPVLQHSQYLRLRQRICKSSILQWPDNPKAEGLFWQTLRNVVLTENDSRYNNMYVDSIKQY
The assay is described as follows: TLR8 inhibition reporter assay (HEK-Blue SEAP). The conditions noted are these: cells overexpressing human TLR8, SEAP reporter, stimulated with R848 15.9 μM, 22 hour incubation. As for the experimental part: as §1, §2

For a further assay, the target named is T3, human TLR9 (Homo sapiens, UniProt Q9NR96).
T3 construct: host or cells: HEK-Blue cells
T3 sequence (Q9NR96 26-1032): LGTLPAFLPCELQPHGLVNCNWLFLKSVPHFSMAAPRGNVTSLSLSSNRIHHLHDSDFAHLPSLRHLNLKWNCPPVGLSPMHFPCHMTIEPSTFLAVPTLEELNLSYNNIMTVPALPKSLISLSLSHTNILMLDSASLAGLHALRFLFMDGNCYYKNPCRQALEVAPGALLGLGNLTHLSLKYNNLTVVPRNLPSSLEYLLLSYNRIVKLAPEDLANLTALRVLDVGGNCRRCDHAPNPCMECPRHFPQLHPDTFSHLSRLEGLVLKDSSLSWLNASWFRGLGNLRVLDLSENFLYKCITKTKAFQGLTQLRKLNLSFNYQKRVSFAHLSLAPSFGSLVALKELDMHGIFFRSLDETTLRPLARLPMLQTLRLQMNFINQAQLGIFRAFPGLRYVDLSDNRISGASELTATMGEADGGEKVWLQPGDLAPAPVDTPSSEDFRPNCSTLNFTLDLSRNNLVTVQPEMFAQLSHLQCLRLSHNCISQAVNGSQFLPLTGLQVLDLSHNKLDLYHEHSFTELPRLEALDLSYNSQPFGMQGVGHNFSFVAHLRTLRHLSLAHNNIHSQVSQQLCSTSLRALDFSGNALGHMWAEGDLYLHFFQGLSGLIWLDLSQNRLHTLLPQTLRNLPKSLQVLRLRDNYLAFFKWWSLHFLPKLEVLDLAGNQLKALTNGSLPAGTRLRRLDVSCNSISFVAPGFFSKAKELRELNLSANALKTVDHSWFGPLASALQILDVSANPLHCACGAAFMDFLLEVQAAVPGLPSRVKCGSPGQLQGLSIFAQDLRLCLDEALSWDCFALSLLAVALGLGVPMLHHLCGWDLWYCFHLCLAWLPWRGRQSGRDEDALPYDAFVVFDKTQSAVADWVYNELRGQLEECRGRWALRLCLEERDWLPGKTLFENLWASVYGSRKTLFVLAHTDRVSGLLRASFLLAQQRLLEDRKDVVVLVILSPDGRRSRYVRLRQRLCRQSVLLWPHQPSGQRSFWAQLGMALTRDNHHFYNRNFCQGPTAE
The assay is described as follows: TLR9 inhibition reporter assay (HEK-Blue SEAP). The conditions noted are these: cells overexpressing human TLR9, SEAP reporter, stimulated with ODN2006 5 nM, 22 hour incubation. How it is done: as §1, §2

The IC50 is the point on the concentration scale where inhibition reaches its midpoint. A lower IC50 goes with higher potency. As to `CCc1c(-c2ccc(OC)c(OC)c2)[nH]c2cnc(-c3nnc([C@H]4CCNC4)o3)nc12` [Example 44, (S)-2-(6-(3,4-dimethoxyphenyl)-7-ethyl-5H-pyrrolo[3,2-d]pyrimidin-2-yl)-5-(pyrrolidin-3-yl)-1,3,4-oxadiazole], the concentration for half-maximal inhibition (IC50) at human TLR7, on human TLR8 and against human TLR9 was 1 to 50 µM throughout.
In the case of `CCc1c(-c2ccc(OC)c(OC)c2)[nH]c2cnc(-c3nnc(C[C@@H]4CCCN4)o3)nc12` [Example 45, (S)-2-(6-(3,4-dimethoxyphenyl)-7-ethyl-5H-pyrroIo[3,2-d]pyrimidin-2-yl)-5-(pyrrolidin-2-ylmethyl)-1,3,4-oxadiazole], the IC50 on human TLR7, on human TLR8 and against human TLR9 was 1 to 50 µM each time.
As to `CCc1c(-c2ccc(OC)c(OC)c2)[nH]c2cnc(-c3nnc(CCCN(C)C)o3)nc12` [Example 37, 3-(5-(6-(3,4-dimethoxyphenyl)-7-ethyl-5H-pyrrolo[3,2-d]pyrimidin-2-yl)-1,3,4-oxadiazol-2-yl)-N,N-dimethylpropan-1-amine], the IC50 against human TLR7 lay in the range of 1 to 50 µM; against human TLR8, 0.1 to 1 µM; on human TLR9 it was 1 to 50 µM.
In the case of `CCc1c(-c2ccc(OC)c(OC)c2)[nH]c2cnc(C3CCN(Cc4c[nH]cn4)CC3)nc12` [Example 51, 2-(1-((1H-imidazol-4-yl)methyl)piperidin-4-yl)-6-(3,4-dimethoxyphenyl)-7-ethyl-5H-pyrrolo[3,2-d]pyrimidine], the IC50 against human TLR7 was in the range of 0.1 to 1 µM; on human TLR8 it was 0.1 to 1 µM; at human TLR9, 1 to 50 µM.
Take `COc1ccc(-c2[nH]c3cnc(C4CCN(C5CCN(C(C)C)CC5)CC4)nc3c2C(C)C)cc1OC` [Example 22, 6-(3,4-dimedioxyphenyl)-7-isopropyl-2-(1′-isopropyl-[1,4′-bipiperidin]-4-yl)-5H-pyrrolo[3,2-d]pyrimidine]: the IC50 against human TLR7 was less than 0.1 µM; on human TLR8, less than 0.1 µM; against human TLR9, 0.1 to 1 µM.
Regarding `Cc1cc(-c2[nH]c3cnc(C4CCN(CC(=O)N(C)C)CC4)nc3c2C(C)C)cn(C)c1=O` [Example 32, 2-(4-(6-(1,5-dimethyl-6-oxo-1,6-dihydropyridin-3-yl)-7-isopropyl-5H-pyrrolo[3,2-d]pyrimidin-2-yl)piperidin-1-yl)-N,N-dimethylacetainide], the IC50 at human TLR7 was less than 0.1 µM; against human TLR8, less than 0.1 µM; at human TLR9, 1 to 50 µM.
Regarding `COc1cc(-c2[nH]c3cnc(C4CCN(CC(=O)N(C)C)CC4)nc3c2C(C)C)cn2ncnc12` [Example 31, 2-(4-(7-isopropyl-6-(8-methoxy-[1,2,4]triazolo[1,5-a]pyridin-6-yl)-5H-pyrrolo[3,2-d]pyrimidin-2-yl)piperidin-1-yl)-N,N-dimethylacetamide], the IC50 was less than 0.1 µM at human TLR7, less than 0.1 µM against human TLR8 and 1 to 50 µM at human TLR9.
Consider `Cc1cc(-c2[nH]c3cnc(C4CCN(CC(=O)N(C)C)CC4)nc3c2C(C)C)cn2ncnc12` [Example 29, 2-(4-(7-isopropyl-6-(8-methyl-[1,2,4]triazolo[1,5-a]pyridin-6-yl)-5H-pyrrolo[3,2-d]pyrimidin-2-yl)piperidin-1-yl)-N,N-dimethylacetantide], for which the results for the IC50 at human TLR7, against human TLR8 and at human TLR9 were less than 0.1 µM, less than 0.1 µM and 1 to 50 µM, respectively.
Consider `Cc1cc(-c2[nH]c3cnc(C4CCN(C5COC5)CC4)nc3c2C(C)C)cn2ncnc12` [Example 24, 6-(7-isopropyl-2-(1-(oxetan-3-yl)piperidin-4-yl)-5H-pyrrolo[3,2-d]pyrimidin-6-yl)-8-methyl-[1,2,4]triazolo[1,5-a]pyridine], for which the IC50 on human TLR7 is less than 0.1 µM; on human TLR8 it was less than 0.1 µM; against human TLR9 it was 1 to 50 µM.
In the case of `CNC(=O)CN1CCC(c2ncc3[nH]c(-c4cc(C)c5ncnn5c4)c(C(C)C)c3n2)CC1` [Example 30, 2-(4-(7-isopropyl-6-(8-methyl-[1,2,4]triazolo[1,5-a]pyridin-6-yl)-5H-pyrrolo[3,2-d]pyrimidin-2-yl)piperidin-1-yl)-N-tnethylacetamide], the IC50 on human TLR7 is less than 0.1 µM; against human TLR8 it was less than 0.1 µM; on human TLR9, more than 50 µM.
As for `CCc1c(-c2ccc(OC)c(OC)c2)[nH]c2cnc(C3CCN(CC(=O)N(C)C)CC3)nc12` [Example 49], the values for the IC50 against human TLR7, at human TLR8 and against human TLR9 were 0.1 to 1 µM, less than 0.1 µM and 1 to 50 µM, respectively.
